# Data taken from BindingDB's records for doi:10.1021/acs.jmedchem.9b00359 (Shandong University, 2019).
# Experiment: Inhibition of HIV1 reverse transcriptase p66/p51 K103N/Y181C mutant infected in human MT2 cells assessed as reduction in viral infection incubated for 5 days
row,SMILES,EC50
1,Cc1c(Oc2ccccc2OCCn2ccc(=O)[nH]c2=O)cc(N(C)C(=O)CF)c2ccc(C#N)cc12,15 µM
2,C=CC(=O)N(C)c1cc(Oc2ccccc2OCCn2ccc(=O)[nH]c2=O)c(C)c2cc(C#N)ccc12,0.5 µM
3,C=CC(=O)Nc1cc(Oc2ccccc2OCCn2ccc(=O)[nH]c2=O)c(C)c2cc(C#N)ccc12,> 12 µM
